Test results reported in patent publication US10774083B2, “Heterocyclic amide compound” (TAKEDA PHARMACEUTICAL COMPANY LIMITED, priority 2016, dated 2020).

These compounds were tested against T1, human PRS protein (His-Avi-hEPRS (998-1512)) (Homo sapiens, UniProt P07814) (assay: PRS inhibitory activity ([32P]pyrophosphate exchange enzyme assay)). Conditions: 300 nM test compound; 0.3 µM.
T1 construct: to construct His-Avi-hEPRS (998-1512) expression plasmid; His tag (N); Avi tag (N); TEV cleavage site (ENLYFQG, then S; inferred from the forward primer hEPRS-TEV-NheF) (N); made in house; host or cells: E. coli BL21(DE3)
T1 sequence (P07814 998-1512 limits assumed): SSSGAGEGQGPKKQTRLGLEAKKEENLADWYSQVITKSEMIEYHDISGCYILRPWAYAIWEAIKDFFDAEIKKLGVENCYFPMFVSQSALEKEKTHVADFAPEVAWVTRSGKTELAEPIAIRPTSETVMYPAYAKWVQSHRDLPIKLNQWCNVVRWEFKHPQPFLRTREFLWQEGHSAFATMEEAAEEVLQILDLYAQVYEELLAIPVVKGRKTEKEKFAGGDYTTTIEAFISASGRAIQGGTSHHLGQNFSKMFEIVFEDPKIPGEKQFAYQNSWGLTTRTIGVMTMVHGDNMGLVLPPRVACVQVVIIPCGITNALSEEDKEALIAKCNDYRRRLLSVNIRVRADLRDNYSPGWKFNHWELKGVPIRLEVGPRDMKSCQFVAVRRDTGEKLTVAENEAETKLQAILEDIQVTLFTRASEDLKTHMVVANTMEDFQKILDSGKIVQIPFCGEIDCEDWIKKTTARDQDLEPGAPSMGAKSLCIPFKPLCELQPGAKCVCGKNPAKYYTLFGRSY
Format: biochemical
Method: The PRS inhibitory activity of the compounds of the present invention was evaluated by the following method.
An expression plasmid of Catalytic Domain of human EPRS was obtained by PCR using human skeletal muscle cDNA Library (Takara Bio Inc.) as a template and 2 kinds of Primers 5′-[…]-3′ (hEPRS-TEV-NheF) (SEQ ID NO: 1) and 5′-[…]-3′ (hEPRS-St-Not-R) (SEQ ID NO: 2). PCR was performed using PrimeStar GXL DNA Polymerase (Takara Bio Inc.) and included (1) 98° C., 1 min, (2) 35 cycles of 98° C., 10 sec, 65° C., 10 sec, 72° C., 1 min, and (3) reaction at 72° C., 1 min. This was cleaved with Nhe I and Not I (Takara Bio Inc.) and inserted using Ligation High (TOYOBO CO., LTD.) into the Nhe I/Not I site of pET21a (Novagen) with His-Avitag inserted thereinto. This was introduced into ECOS JM109 (NIPPON GENE CO., LTD.) to construct His-Avi-hEPRS (998-1512) expression plasmid.
Recombinant human PRS protein was prepared by transforming the His-Avi-hEPRS (998-1512) expression plasmid prepared above into ECOS Competent E. coli BL21(DE3) (NIPPON GENE CO., LTD.). Escherichia coli obtained by transformation was inoculated into 300 mL of LB medium (1% peptone, 0.5% yeast extract, 0.5% sodium chloride, 0.01% ampicillin) and cultured at 30° C. for 16 hr. The obtained culture medium was transferred into a jar culture tank charged with 6 L of the main fermentation medium (0.3% potassium dihydrogen phosphate, 0.6% disodium hydrogen phosphate, 0.1% ammonium chloride, 0.05% sodium chloride, 0.024% magnesium sulfate, 0.02% NEWPOL LB-625, 1.5% sorbitol, 1.5% casamino acid, 0.5% yeast extract, 0.01% ampicillin) and culturing was started at 37° C., quantity of airflow 5 L/min, stirring rotating speed 400 rpm. At the time point when the turbidity of the culture medium reached about 550 Klett units, the culture temperature was lowered to 16° C., isopropyl-β-D-thiogalactopyranoside (IPTG) was added to the final concentration 0.1 mM, and culturing was performed for another 16 hr to induce expression of human PRS. After completion of culturing, the culture medium was centrifuged at 5,000 rpm for 10 min. The obtained human PRS expressing Escherichia coli was suspended in a buffer containing 50 mM Tris-HCl (pH 8.0), 150 mM NaCl, 1 mM DTT, 5 U/ml Benzonase, 20 mM Imidazole and sonicated using Sonifier (BRANSON). The homogenate was centrifuged (33,000×G, 60 min, Beckman Coulter), the obtained supernatant was subjected to adsorption by passage through Ni-NTA Superflow (QIAGEN) column equilibrated in advance with 50 mM Tris-HCl (pH 8.0), 300 mM NaCl, 1 mM DTT, and elution was performed with a buffer containing 50 mM Tris-HCl (pH 8.0), 300 mM NaCl, 1 mM DTT, 250 mM Imidazole. Furthermore, gel filtration was performed using Superdex200 pg column equilibrated in advance with a buffer containing 50 mM Tris-HCl (pH 8.0), 150 mM NaCl, 1 mM DTT, 10% glycerol to give purified human PRS protein. The protein concentration was measured using BCA Protein Assay Kit (PIERCE) and BSA as the standard.
A test compound was dissolved in 5 μL of an assay buffer (50 mM Tris-HCl (pH 7.5), 20 mM KCl, 1 mM DTT, 0.01% Tween 20) and incubated for 60 min with 5 μL of 40 nM human PRS protein dissolved in the assay buffer containing 40 mM MgCl2. An enzyme reaction of the human PRS protein was started by adding 10 μL of a substrate solution containing 300 μM ATP, 160 μM L-Proline, 400 μM pyrophosphate, [^32P]pyrophosphate (PerkinElmer) prepared to 1 MBq/mL. After incubation at room temperature for 30 min, the reaction was discontinued by adding 50 μL of discontinuation/washing solution (1M HCl, 200 mM sodium pyrophosphate) to the reaction mixture. The reaction solution was transferred to a filter plate (Merck Millipore, Billerica, Mass.) previously added with 200 μL of charcoal solution (0.5% HCl solution containing 10% charcoal (w/v)). […]

inhibitory rate (%) of PRS	SMILES
101%	Cn1cc(-c2cc(F)cc(CNC(=O)c3ncnc4nc(C5COCCO5)[nH]c34)c2)cn1 (stereo not shown) [Example 34, 8-(1,4-dioxan-2-yl)-N-(3-fluoro-5-(1-methyl-1H-pyrazol-4-yl)benzyl)-7H-purine-6-carboxamide]

Same assay, conditions: 300 nM test compound; read-out: inhibitory rate (%) of PRS

inhibition at 0.3 µM	SMILES
94%	CCc1cc(N2CC[C@@](C#N)(C3CC3)C2=O)cc(C(=O)NCc2cc(F)cc(-c3cnn(C)c3)c2)n1 [Example 219, 4-((3S)-3-cyano-3-cyclopropyl-2-oxopyrrolidin-1-yl)-6-ethyl-N-(3-fluoro-5-(1-methyl-1H-pyrazol-4-yl)benzyl)pyridine-2-carboxamide]
69%	Cc1cc(N2CCC(CO)(C3CC3)C2=O)cc(C(=O)NCc2cc(F)cc(-c3cnn(C)c3)c2)n1 (stereo not shown) [Example 235, 4-(3-cyclopropyl-3-(hydroxymethyl)-2-oxopyrrolidin-1-yl)-N-(3-fluoro-5-(1-methyl-1H-pyrazol-4-yl)benzyl)-6-methylpyridine-2-carboxamide]
74%	Cc1nc(C(=O)NCc2cc(F)cc(-c3cnn(C)c3)c2)cc(N2CC[C@@](C#N)(C3CC3)C2=O)n1 [Example 237, 6-((3S)-3-cyano-3-cyclopropyl-2-oxopyrrolidin-1-yl)-N-(3-fluoro-5-(1-methyl-1H-pyrazol-4-yl)benzyl)-2-methylpyrimidine-4-carboxamide]
91%	Cc1cc(N2CCN(C(C)C)C2=O)cc(C(=O)NCc2cc(F)cc(-c3cnn(C)c3)c2)n1 [Example 226, N-(3-fluoro-5-(1-methyl-1H-pyrazol-4-yl)benzyl)-4-(3-isopropyl-2-oxoimidazolidin-1-yl)-6-methylpyridine-2-carboxamide]
87%	Cc1cc(N2CCC(C3CC3)C2=O)cc(C(=O)NCc2cc(F)cc(-c3cnn(C)c3)c2)n1 (stereo not shown) [Example 234, 4-(3-cyclopropyl-2-oxopyrrolidin-1-yl)-N-(3-fluoro-5-(1-methyl-1H-pyrazol-4-yl)benzyl)-6-methylpyridine-2-carboxamide]
74%	COc1cc(N2CC[C@@](C#N)(C3CC3)C2=O)cc(C(=O)NCc2cc(F)cc(-c3cnn(C)c3)c2)n1 [Example 224, 4-((3S)-3-cyano-3-cyclopropyl-2-oxopyrrolidin-1-yl)-N-(3-fluoro-5-(1-methyl-1H-pyrazol-4-yl)benzyl)-6-methoxypyridine-2-carboxamide]

Second part, the compound before the results:

SMILES	inhibition at 0.3 µM
Cn1cc(-c2csc(CNC(=O)c3cc(N4CC[C@@](C#N)(C5CC5)C4=O)ccn3)c2)cn1 [Example 157, 4-((3S)-3-cyano-3-cyclopropyl-2-oxopyrrolidin-1-yl)-N-((4-(1-methyl-1H-pyrazol-4-yl)-2-thienyl)methyl)pyridine-2-carboxamide]	85%
Cn1ncc2c(CNC(=O)c3nccc4nc(C5CCCC5)[nH]c34)cccc21 [Example 93, 2-cyclopentyl-N-((1-methyl-1H-indazol-4-yl)methyl)-3H-imidazo[4,5-c]pyridine-4-carboxamide]	91%
Cc1nc(C(=O)NCc2cc(F)cc(-c3cnn(C)c3)c2)c2[nH]c(C3CCCC3)nc2n1 [Example 13, 8-cyclopentyl-N-(3-fluoro-5-(1-methyl-1H-pyrazol-4-yl)benzyl)-2-methyl-7H-purine-6-carboxamide]	86%
Cc1cc(N2CC[C@@](C#N)(C3CC3)C2=O)cc(C(=O)NCc2cc(F)cc(-c3cncnc3)c2)n1 [Example 205, 4-((3S)-3-cyano-3-cyclopropyl-2-oxopyrrolidin-1-yl)-N-(3-fluoro-5-(pyrimidin-5-yl)benzyl)-6-methylpyridine-2-carboxamide]	86%
Cn1cc(-c2cc(CNC(=O)c3nccc4nc(C5CCCC5)n(C)c34)ccn2)cn1 [Example 136, 2-cyclopentyl-3-methyl-N-((2-(1-methyl-1H-pyrazol-4-yl)pyridin-4-yl)methyl)-3H-imidazo[4,5-c]pyridine-4-carboxamide]	77%
Cc1cc(N2OCC(C)(C)C2=O)cc(C(=O)NCc2cc(F)cc(-c3cnn(C)c3)c2)n1 [Example 179, 4-(4,4-dimethyl-3-oxo-1,2-oxazolidin-2-yl)-N-(3-fluoro-5-(1-methyl-1H-pyrazol-4-yl)benzyl)-6-methylpyridine-2-carboxamide]	93%
Cn1cc(-c2cc(F)cc(CNC(=O)c3cc(N4CC[C@@](C#N)(C5CC5)C4=O)ccn3)c2)cn1 [Example 149, 4-((3S)-3-cyano-3-cyclopropyl-2-oxopyrrolidin-1-yl)-N-(3-fluoro-5-(1-methyl-1H-pyrazol-4-yl)benzyl)pyridine-2-carboxamide]	95%
Cn1cc(-c2ccnc(CNC(=O)c3nccc4nc(C5CCCC5)n(C)c34)n2)cn1 [Example 146, 2-cyclopentyl-3-methyl-N-((4-(1-methyl-1H-pyrazol-4-yl)pyrimidin-2-yl)methyl)-3H-imidazo[4,5-c]pyridine-4-carboxamide]	78%
Cn1cc(-c2cc(F)cc(CNC(=O)c3ncnc4nc(C5CCS(=O)(=O)C5)[nH]c34)c2)cn1 (stereo not shown) [Example 28, 8-(1,1-dioxidotetrahydrothiophen-3-yl)-N-(3-fluoro-5-(1-methyl-1H-pyrazol-4-yl)benzyl)-7H-purine-6-carboxamide]	101%
CC1(c2nc3ccnc(C(=O)NCc4ccccc4Cl)c3[nH]2)CCCC1 [Example 87, N-(2-chlorobenzyl)-2-(1-methylcyclopentyl)-3H-imidazo[4,5-c]pyridine-4-carboxamide]	74%
Cn1cc(-c2cc(F)cc(CNC(=O)c3cc(N4CC[C@@](C#N)(C5CC5)C4=O)ccn3)c2)ccc1=O [Example 150, 4-((3S)-3-cyano-3-cyclopropyl-2-oxopyrrolidin-1-yl)-N-(3-fluoro-5-(1-methyl-6-oxo-1,6-dihydropyridin-3-yl)benzyl)pyridine-2-carboxamide]	87%
O=C(NCc1cccc(-c2ccccc2)c1)c1nccc2nc(C3CCCC3)[nH]c12 [Example 83, N-(biphenyl-3-ylmethyl)-2-cyclopentyl-3H-imidazo[4,5-c]pyridine-4-carboxamide]	98%
